In patent US20050095219A1, “Compositions for promoting vaginal cell proliferation and maturation” (priority 2003, published 2005):

What was measured:
[1] = test system: Normal human vaginal epithelial cells (NHVE 5164); assay: Vaginal cell proliferation (CellTiter 96 Aqueous One Solution); format: cell-based; conditions: complete medium, 72 hours
Description: Normal human vaginal epithelial cells from Clonetics (NHVE 5164) were subcultured into 96 well plates at 37° C., 5% CO2. Cells were cultured with basal PrEBM (Clonetics CC 3165) supplemented with cell growth medium bulletKit (Clonetics, cc-3166). Cells were treated with HLA having different molecular weights (MW), HLA1 (Sigma #H1751, intrinsic viscosity=100), HLA2 (MW, 150-500 k, Carbomer #8-01250) and HLA3 (a disaccharide, MW 405, Sigma #H9649). HLA was dissolved in either basal culture medium or basal medium supplemented with growth factors (complete medium) at concentration of 100, 10 or 1 μg/ml. Control group cells were treated with culture medium only. Each treatment group included 6 samples. The media for the different samples were changed 48 hours later and cell proliferation was examined at 72 hours by using CellTiter 96 Aqueous One Solution from Promega (#TB245). Twenty μl of the reagent was added to each well. The plates were returned to cell culture incubator for 3 hours. The absorbance in each well was measured at 490 nm with a microtiter reader.

[2] = test system: Candida albicans, ATCC 10231; assay: Candida albicans attachment to A431 cells; format: cell-based
Description: A culture of Candida albicans, ATCC 10231, was started in peptone/glucose culture medium and incubated at 37° C. with shaking for three days before the experiment. A monolayer of A431 cells, ATCC CRL-1555, was grown on a 24-well tissue culture plate until confluent. Hyaluronic acid at concentration of 1 mg/ml or 5 mg/ml in PBS was added to the wells (1.2 ml/well), and the plates were incubated for 30 minutes at 35° C. A control plate of confluent A431 cells was also prepared that received 1.2 ml/well PBS and no hyaluronic acid. After the 30 min incubation, 0.5 ml of solution was removed from the wells and 0.5 ml of yeast suspension (1×10^6 cfu/ml) was added. After 2 hours of incubation, the supernatant was removed from the wells and the wells were rinsed thoroughly with PBS to remove all non-bound yeast. Then, 0.2 ml of 0.25% trypsin/EDTA was added to each well and the plates were incubated at 35° C. for 15 min. Trypsinization was stopped by adding 1 ml of 10% fetal bovine serum in culture medium. The trypsinized cell/yeast suspension was centrifuged and re-suspended in 1 ml of the medium. […] The number of colonies on each plate was counted and the number of yeast attached to the cells in each well was calculated.
(§1) All the data are expressed as mean ± SEM and were analyzed by one-way Analysis of Variance (ANOVA) followed by a Tukey-Kramer Multiple Comparisons Test. […]

[3] = test system: Primary vaginal epithelial cells; assay: Glycogen production, periodic acid Schiff (PAS) assay; format: cell-based, human; conditions: 0.1 mg/mL, 5 days treatment, p<0.05 vs control
Description: Primary vaginal epithelial cells were cultured in 96-well plates. Five samples were tested for each group. Treatment was for 5 days with culture medium solutions (PrEBM, Clonetics CC-3165) without (the control group) and with 0.1 mg/mL hyaluronic acid (Sigma H-1751). The media were changed every other day. At the end the treatment, the media was removed, and the well was washed twice with HBSS.
Glycogen tests were performed using a periodic acid Schiff (PAS) assay as described below. Before the test, cells were fixed with a 10 vol % Formalin/ethanol solution for 1 hour at room temperature, followed by continuous rinsing with deionized (DI) water for 1 minute. Harleco® PAS Aassay Kit (from EM Science 64945/43) was used for glycogen detection. The basic principle is that the hydroxy groups on the glycogen units were first oxidized into aldehyde groups by periodic acid, and the aldehyde groups reacted with Schiff's agent to produce a red colorant. The specific assay operations were all done at room temperature as follows: • 1. Periodic acid reagent was added to the well/chamber and allowed to stand for 10 minutes). • 2. Samples were continuously rinsed in water for one minute. • 3. Schiff's reagent was added and allowed to stand for 15 minutes. • 4. […] The numbers of glycogen-stained positive cells were manually counted under microscope.

[4] = test system: E. coli with P family pili, ATCC 53505; assay: E. coli adhesion test on A431 cells; format: cell-based
Description: Cultured A431 cells were used as a model human epithelial cell line. A431 cells were obtained from American Cell Type Culture Collection, catalog # CRL-1555. A monolayer of A431 cells was grown on a 24-well tissue culture plate until confluent. E. coli with P family pili, ATCC 53505, were cultured in trypticase soy broth (TSB) overnight. Phosphate buffered saline (PBS, control) or hyaluronic acid (Sigma, catalog # H1876) solutions at a concentration of 1 mg/ml or 5 mg/ml in PBS were added to the A431 cell layers, using a volume of 1.2 ml/well. For comparison, a control plate was set up and treated identically as the test plate, except that the wells in the control plate were given PBS without hyaluronic acid. After incubation for 30 minutes at 37° C., 0.5 ml of solution was removed from the wells and 0.5 ml of the bacteria suspension was added. […] After 60 minutes, the supernatant in each well was removed and the wells were rinsed thoroughly with PBS to remove all non-bound bacteria. Trypticase soy broth was then added to wells, and the system was incubated at 37° C. with shaking at 100 rpm/min for 2 hours. Bacterial concentration was measured by the detection of optical density of bacterial suspension at 540 nm.
as §1

E. coli, ATCC 53505 = assay: Effect on E. coli growth (optical density at 540 nm); format: cell-based; conditions: 1 mg/ml or 5 mg/ml, 1, 2 and 3 hours
Description: To test whether hyaluronic acid could influence cellular growth, E. coli, ATCC 53505 cells were cultured overnight in trypticase soy broth. The culture was then diluted to an optical density of 0.1 and hyaluronic acid (1 mg/ml or 5 mg/ml) in PBS was incubated with the E. coli suspension. A control comprising a suspension E. coli treated with PBS was also prepared. The test and control cells were incubated at 37° C. with shaking and the optical density of the bacterial suspensions at 540 nm was measured at 1, 2 and 3 hours after addition of the hyaluronic acid or PBS. All the data are expressed as mean ± SEM and were analyzed by one-way Analysis of Variance (ANOVA) followed by a Tukey-Kramer Multiple Comparisons Test. Differences were considered significant at the level of p<0.05.

Q: Which “vaginal cell proliferation compared to control group” value ([1]; any of the three concentrations tested (100, 10, 1 μg/ml)) does the source give for hyaluronic acid [HLA2] here?
A: The value was “no statistically significant effect”.

Q: What does the source list for hyaluronic acid?
A: number of Candida albicans adhering to A431 cells ([2]; 1 mg/ml in PBS): the effect was not so significant; number of Candida albicans adhering to A431 cells ([2]; 5 mg/ml in PBS): significantly inhibited; glycogen production (numbers of glycogen-stained positive cells) [3]: increase in glycogen production was statistically significant; number of E. coli attached to A431 cells ([4]; 1 mg/ml in PBS): lesser effect on E. coli adhesion; number of E. coli attached to A431 cells ([4]; 5 mg/ml in PBS): significantly inhibited; E. coli growth (E. coli, ATCC 53505): neither of the hyaluronic acid solutions had any effect on bacterial growth

Q: With hyaluronic acid [HLA1] as the substance, how does the “vaginal cell proliferation compared to control group” value ([1]; 100 μg/ml) read?
A: The value was “significantly promoted vaginal cell proliferation”.

Q: And the “vaginal cell proliferation compared to control group” value ([1]; low concentrations 10 and 1 μg/ml)?
A: Its value is “no significant effect on cell proliferation”.
